Patent US10071164B2, “Estrogen-related receptor alpha based protac compounds and associated methods of use” (Yale University, priority 2014, dated 2018)
One block for each compound: values may come before it.

How the values were obtained:
[1] = biological target: estrogen related receptor alpha (ERRα) (Homo sapiens, UniProt P11474); details: FIG. 5
Description: [drawing 18] on the degradation of estrogen related receptor alpha (ERRα).

[2] = biological target: T1, ERRα (Homo sapiens, UniProt P11474); experiment: ERRα degradation in ST-486 cells; format: cell-based; set-up: degration of ERRα in either MCF-7 cells or ST-486 cells; endogenous in cells; host or cells: ST-486; details: ST486, column C, read-out: ERRα Degradation Dmax (Estimated) ST-486 cells
T1 sequence (P11474 1-423): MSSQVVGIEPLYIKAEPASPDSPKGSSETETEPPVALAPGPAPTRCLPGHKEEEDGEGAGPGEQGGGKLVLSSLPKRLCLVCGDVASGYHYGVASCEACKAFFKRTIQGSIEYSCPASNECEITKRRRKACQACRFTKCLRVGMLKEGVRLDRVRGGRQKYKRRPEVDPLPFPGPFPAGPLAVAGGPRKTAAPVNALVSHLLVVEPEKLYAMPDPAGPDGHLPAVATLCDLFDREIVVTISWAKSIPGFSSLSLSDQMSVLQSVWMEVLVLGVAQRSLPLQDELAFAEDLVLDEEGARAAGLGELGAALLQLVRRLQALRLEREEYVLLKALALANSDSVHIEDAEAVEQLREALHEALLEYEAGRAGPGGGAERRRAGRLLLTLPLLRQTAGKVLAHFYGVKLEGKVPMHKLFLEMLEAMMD
Protocol: Using the methods as described herein, the following exemplary PROTAC compounds were prepared (see Table below). The exemplary compounds were also assayed for their ability to effectuate the degration of ERRα in either MCF-7 cells or ST-486 cells. Thus, in certain embodiments, the description provides the compounds below, including compositions comprising effective amount of a compound as listed below or a derivative, analog, or a prodrug of the same, in combination with at least one of a pharmaceutically acceptable carrier, another active agent, including a second PROTAC molecule as described herein or a combination thereof. In additional embodiments, the disclosure provides a method of treating a disease or condition in a subject in need thereof, comprising administering a composition comprising an effective amount of a compound listed below, wherein the composition is effective for treating or ameliorating a symptom of the disease or condition.
Legend for following table: A=ERRα Degradation Dmax (Estimated) MCF-7 cells; B=ERRα Degradation DC50 (Estimated) MCF-7 cells; C=ERRα Degradation Dmax (Estimated) ST-486 cells; D=ERRα Degradation DC50 (Estimated) ST-486 cells

[3] = biological target: VHL (Homo sapiens, UniProt P40337); experiment: VHL binding (stereocenter inversion); details: inversion of stereocenter(s) of the VHL ligand
[4] = biological target: RIPK2 (Homo sapiens, UniProt O43353); experiment: In vitro RIPK2 ubiquitination, reconstituted ubiquitination cascade; format: biochemical; details: quenched 15 min after initiation, PAGE and autoradiography
Protocol: Ubiquitination reactions were performed in three stages. In the first stage, RIPK2 (final 500 nM) was incubated for 10 min at room temperature with [^32P]g-ATP in kinase buffer (25 mM Tris pH 7.5, 50 mM KCl, 2 mM Mg(CH3CO2)2, 2 mM MnCl2, 2 mM DTT) to radiolabel RIPK2 through auto-phosphorylation. In the second stage, ubiquitination buffer (25 mM Tris pH 7.5, 5 mM MgCl2, 100 mM NaCl, 2 mM ATP, 0.1 mg/ml BSA, and 2 mM DTT) was added to complete auto-phosphorylation, and then VHL (final 250 nM) and indicated PROTACs (various concentrations) were added to the mixture to allow ternary complex formation. In parallel, UbE1 (final 25 nM), Ubc4 (final 250 nM), and ubiquitin (final 116 μM) were mixed in ubiquitination buffer to allow charging of the E2 enzyme with activated ubiquitin. In stage three of the reaction, the RIPK2-PROTAC-VHL and UbE1-Ubc4˜Ub mixtures were combined, and incubated at room temperature for various times before being quenched with Sample Buffer containing 5% b-mercaptoethanol. Ubiquitinated RIPK2 was then separated by 4-15% SDS-PAGE and imaged using a PhosphoImager Screen overnight.
RIPK2 was labeled by autophosphorylation and then incubated with the indicated concentrations of PROTAC and the reconstituted ubiquitination cascade. Samples were quenched 15 min after initiation of the reaction, and imaged by PAGE and autoradiography. RIPK2-Ubn is indicated.

[5] = system: THP-1 cells; experiment: Trypan Blue cell viability assay; format: cell-based; details: 16 hours
Protocol: FIG. 13 is a cell viability graph illustrating that PROTAC_RIPK2 is not toxic to cells. THP-1 cells were treated with the indicated concentration sof PROTAC_RIPK2 or PROTAC_RIPK2_epi for 16 hours, followed by a Trypan Blue assay to determine cell viability. Error bars represent mean and S.D.

Sequence of VHL (P40337 whole entry, species assumed): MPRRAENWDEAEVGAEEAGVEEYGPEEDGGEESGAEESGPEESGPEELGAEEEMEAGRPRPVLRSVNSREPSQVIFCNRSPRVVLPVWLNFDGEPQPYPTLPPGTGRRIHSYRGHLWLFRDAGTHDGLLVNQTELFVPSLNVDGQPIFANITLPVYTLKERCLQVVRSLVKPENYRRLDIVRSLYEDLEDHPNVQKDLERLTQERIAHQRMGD
Sequence of VHL (Q15370 whole entry partner, species assumed): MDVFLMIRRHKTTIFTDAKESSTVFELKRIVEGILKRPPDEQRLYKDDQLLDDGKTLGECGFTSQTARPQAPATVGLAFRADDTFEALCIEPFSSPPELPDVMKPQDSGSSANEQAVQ
Sequence of VHL (Q15369 whole entry partner, species assumed): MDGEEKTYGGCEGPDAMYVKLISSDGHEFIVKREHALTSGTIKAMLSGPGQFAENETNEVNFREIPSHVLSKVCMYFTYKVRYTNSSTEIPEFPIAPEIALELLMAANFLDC
Sequence of RIPK2 (O43353 whole entry, species assumed): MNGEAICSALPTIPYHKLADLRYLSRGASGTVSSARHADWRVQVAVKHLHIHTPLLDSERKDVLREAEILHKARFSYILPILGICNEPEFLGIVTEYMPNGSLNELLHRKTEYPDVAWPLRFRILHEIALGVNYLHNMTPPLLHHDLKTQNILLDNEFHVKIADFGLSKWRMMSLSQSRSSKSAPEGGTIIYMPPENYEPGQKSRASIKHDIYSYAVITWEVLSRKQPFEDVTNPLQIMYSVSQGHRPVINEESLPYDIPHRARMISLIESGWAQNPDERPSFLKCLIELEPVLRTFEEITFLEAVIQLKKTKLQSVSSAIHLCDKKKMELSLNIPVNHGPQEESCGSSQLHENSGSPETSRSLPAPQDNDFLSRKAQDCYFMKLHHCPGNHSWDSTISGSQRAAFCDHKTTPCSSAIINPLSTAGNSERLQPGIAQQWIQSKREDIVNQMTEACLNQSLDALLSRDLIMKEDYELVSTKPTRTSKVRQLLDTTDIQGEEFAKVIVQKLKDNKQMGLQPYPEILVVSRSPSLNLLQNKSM
Sequence of RIPK2 (P40337 whole entry, species assumed, further chain): as the sequence (P40337 whole entry, species assumed) above
Sequence of RIPK2 (Q15370 whole entry partner, species assumed): as the sequence (Q15370 whole entry partner, species assumed) above
Sequence of RIPK2 (Q15369 whole entry partner, species assumed): as the sequence (Q15369 whole entry partner, species assumed) above
Sequence of RIPK2 (Q13617 whole entry partner, species assumed): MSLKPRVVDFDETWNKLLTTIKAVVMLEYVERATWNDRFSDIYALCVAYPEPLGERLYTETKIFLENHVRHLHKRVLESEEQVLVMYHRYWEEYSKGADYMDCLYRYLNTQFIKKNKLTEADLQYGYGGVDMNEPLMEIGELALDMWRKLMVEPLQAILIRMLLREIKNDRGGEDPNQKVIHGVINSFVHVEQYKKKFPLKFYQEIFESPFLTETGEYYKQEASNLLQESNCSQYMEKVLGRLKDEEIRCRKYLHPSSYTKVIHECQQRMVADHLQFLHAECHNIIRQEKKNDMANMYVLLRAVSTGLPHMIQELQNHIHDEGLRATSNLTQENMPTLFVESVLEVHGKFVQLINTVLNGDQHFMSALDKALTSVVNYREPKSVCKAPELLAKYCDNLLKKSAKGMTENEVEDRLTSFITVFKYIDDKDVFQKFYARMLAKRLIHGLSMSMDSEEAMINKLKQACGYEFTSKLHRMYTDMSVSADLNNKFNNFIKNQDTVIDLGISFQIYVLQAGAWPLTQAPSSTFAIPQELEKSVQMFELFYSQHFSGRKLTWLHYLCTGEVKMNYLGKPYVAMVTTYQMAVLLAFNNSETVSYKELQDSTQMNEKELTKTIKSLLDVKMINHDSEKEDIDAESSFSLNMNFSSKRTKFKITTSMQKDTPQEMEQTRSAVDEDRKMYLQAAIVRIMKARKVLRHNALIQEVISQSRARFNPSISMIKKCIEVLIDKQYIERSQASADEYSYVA
Sequence of RIPK2 (P62877 whole entry partner, species assumed): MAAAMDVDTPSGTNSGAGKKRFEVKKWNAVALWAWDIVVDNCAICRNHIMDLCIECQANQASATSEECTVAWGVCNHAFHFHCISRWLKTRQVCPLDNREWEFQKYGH

- effect on the degradation of estrogen related receptor alpha (ERRα) [1]: lack of effect
Structure (SMILES): COc1cc(/C=C2\SC(=O)NC2=O)ccc1Oc1ccc(C#N)cc1C(F)(F)F

- Dmax [2]: 98%
Structure (SMILES): COc1cc(/C=C2\SC(=O)N(CCOCCC(=O)N[C@H](C(=O)N3C[C@H](O)C[C@H]3C(=O)NCc3ccc(-c4scnc4C)cc3)C(C)(C)C)C2=O)ccc1Oc1ccccc1C(F)(F)F [ARV N000414]

- VHL binding [3]: abolishes VHL binding
Structure (SMILES): COc1cc(/C=C2\SC(=O)N(CCOCCC(=O)N[C@H](C(=O)N3C[C@@H](O)C[C@H]3C(=O)NCc3ccc(-c4scnc4C)cc3)C(C)(C)C)C2=O)ccc1Oc1ccc(C#N)cc1C(F)(F)F [PROTAC_ERRα_epi]

- direct RIPK2 ubiquitination in vitro [4]: mediates direct RIPK2 ubiquitination
Structure (SMILES): Cc1ncsc1-c1ccc(CNC(=O)[C@@H]2C[C@@H](O)CN2C(=O)[C@@H](NC(=O)COCCOCCOCCOCCOc2cc3nccc(Nc4ccc5scnc5c4)c3cc2S(=O)(=O)C(C)(C)C)C(C)(C)C)cc1 [PROTAC_RIPK2]
- cell viability (toxicity to cells) [5]: not toxic
